In patent US20260240755A1, “Use Of Plant Cell Suspension Extracellular Vesicle-Derived Small Rnas As Cosmetic Active Ingredient” (ACTV BiYOTEKNOLOJi LABORATUVAR SANAYi VE TiCARET ANONiM …, priority 2023, published 2026):

Experiments:
[1] = test system: H. cordata cell suspension; assay: Elicitor effect on cell suspension biomass (lyophilized cell weight); assay type: cell-based, Houttuynia cordata; conditions: elicitor treatment
Protocol: On the 14th day of the culture, the cell suspension medium was supplemented with 0.2-0.4 and 0.8 mM MeJA or SA, and the suspensions were subjected to additional incubation for 1, 2, and 3 days. After the incubation periods of H. cordata cell suspension cultures were completed, the cells were passed through a filter, and the cultures were terminated. Subsequently, cells from all groups were lyophilized. The weights of the lyophilized cells were measured and recorded.

[2] = test system: H. cordata cell suspension; assay: Elicitor effect on amount of small RNA from cell suspension EVs; assay type: cell-based, Houttuynia cordata; conditions: for amount of RNA obtained from nutrient medium EVs compared to the control group: elicitor added on the 14th day, 0.2-0.8 mM, 1-3 days

SMILES	quantity of H. cordata cell suspensions (lyophilized cell weight) compared to the control group [1]	amount of RNA obtained from nutrient medium EVs compared to the control group [2]	amount of small RNA obtained ([2]; 0.2 mM MeJA for 72 hours) [ng/µL]	amount of small RNA relative to the control group ([2]; 0.2 mM MeJA for 72 hours) [times]
O=C(O)c1ccccc1O [SA, Salicylic acid]	No statistically significant difference	did not result in a significant increase		
CC/C=C\CC1C(=O)CCC1CC(=O)OC (stereo not drawn) [MeJA, Methyl jasmonate]	No statistically significant difference	led to an increase	3000	1.9
